From ChEMBL document CHEMBL1153832, “Identification and characterization of UK-201844, a novel inhibitor that interferes with human immunodeficiency virus type 1 gp160 processing” (Antimicrob Agents Chemother, 2007)
pEC50: −log10 of the molar value. Active and inactive are the calls of the source. No cut-off for these calls is given here.

Legend:
[1] = tested on: Human immunodeficiency virus 1; assay: Antiviral activity against HIV1 bearing HIV1 NL4-3 envelope infected in human HeLa CD4 cells coexpressing LTR/beta-Gal gene assessed as reduction in virus-induced beta-galactosidase reporter gene activity after 72 hrs by single-cycle infection assay; type: functional, organism-based; conditions: Human immunodeficiency virus 1, HeLa
[2] = tested on: Human immunodeficiency virus 1; assay: Inhibition of HIV1 NL4-3 proteins incorporation into virions transfected in HEK293 cells assessed as aberrant Env protein at 0.12 uM by Western blot; type: functional, organism-based
[3] = tested on: Human immunodeficiency virus 1; assay: Antiviral activity against HIV1 NL4-3 transfected in HEK293 cells assessed as inhibition of infectious virus production at 0.12 uM; type: functional; parameters: scale not given: the % may be the effect or the level left
[4] = tested on: Human immunodeficiency virus 1; assay: Inhibition of HIV1 NL4-3 proteins incorporation into virions transfected in HEK293 cells assessed as unprocessed gp160 Env protein at 0.12 uM by Western blot; type: functional, organism-based
[5] = tested on: Human immunodeficiency virus 1; assay: Antiviral activity against HIV1 bearing VSV envelope infected in human HeLa CD4 cells coexpressing LTR/beta-Gal gene assessed as reduction in virus-induced beta-galactosidase reporter gene activity after 72 hrs by single-cycle infection assay; type: functional, organism-based; conditions: Human immunodeficiency virus 1, HeLa
[6] = tested on: Human immunodeficiency virus 1; assay: Antiviral activity against HIV1 bearing HIV1 NL4-3 envelope infected in human MT2 cells assessed as inhibition of HIV-envelope packed virions at 0.12 uM after 72 hrs by virus production assay relative to control; type: functional; conditions: Human immunodeficiency virus 1, MT2, 72 h
[7] = tested on: Human immunodeficiency virus 1; assay: Antiviral activity against HIV1 bearing VSV envelope infected in human MT2 cells assessed as inhibition of VSV-envelope packed virions at 0.12 uM after 72 hrs by virus production assay relative to control; type: functional; conditions: Human immunodeficiency virus 1, MT2, 72 h

SMILES: Cc1c(O)cccc1C(=O)N[C@@H](CSc1ccccc1)[C@H](O)CN1C[C@H]2CCCC[C@H]2C[C@H]1C(=O)NC(C)(C)C [NELFINAVIR]
- pEC50 [1]: < 6.00
- Activity [2]: Active
- Activity [3]: 94%
- Activity [4]: Active
- pEC50 [5]: < 6.00
- inhibition in vivo at 0.12 µM [6]: 88%
- inhibition in vivo at 0.12 µM [7]: 97%
